ChEMBL document CHEMBL5506057, “Discovery and Optimization of Potent, Efficacious and Selective Inhibitors Targeting EGFR Exon20 Insertion Mutations” (J Med Chem, 2024)
Calls of active or inactive are those of the source. The calls are words filed in the database; no cut-off is given here.

Assays:
[1] = Lipophilicity, logD of compound in octanol and aqueous buffer at pH 7.4 incubated for 2 hrs by shake-flask method based LC-MS/MS analysis; assay type: physicochemical
[2] = Metabolic stability in rat hepatocytes assessed as intrinsic clearance measured per 10^6 cells at 1 uM incubated for 120 mins by LC-MS/MS analysis; assay type: ADME, cell-based, Hepatocyte; conditions: read-out: CLH
[3] = Metabolic stability in CD-1 mouse hepatocytes assessed as intrinsic clearance measured per 10^6 cells at 1 uM incubated for 120 mins by LC-MS/MS analysis; assay type: ADME, cell-based, Hepatocyte; conditions: read-out: CLH
[4] = Metabolic stability in human liver microsomes assessed as intrinsic clearance at 1 uM incubated for 30 mins in presence of NADPH by LC-MS/MS analysis; assay type: ADME, Microsome; conditions: read-out: CLH
[5] = Duration (time) of SCID mouse free plasma concentration cover over EGFR insSVD cell IC50 at 50 mg/kg, po; assay type: ADME, organism-based; conditions: in vivo
[6] = GSH reactivity of compound in phosphate buffer assessed as half-life at pH 7.4 at 1 uM by LC-MS/MS analysis; assay type: physicochemical; conditions: phosphate buffer with GSH
[7] = Drug metabolism in human liver microsomes assessed as O-dealkylation mediated fluoro-phenolic metabolite formation incubated for 60 mins by LC-MS/MS analysis; assay type: ADME, Microsome; conditions: 1 h
[8] = target: T1, Epidermal growth factor receptor (Homo sapiens, UniProt P00533); assay: Inhibition of wildtype EGFR (unknown origin) phosphorylation transfected in human NCI-H2073 cells preincubated for 2 hrs followed by EGF stimulation for 10 mins by ELISA; assay type: cell-based
T1 sequence (P00533 whole entry): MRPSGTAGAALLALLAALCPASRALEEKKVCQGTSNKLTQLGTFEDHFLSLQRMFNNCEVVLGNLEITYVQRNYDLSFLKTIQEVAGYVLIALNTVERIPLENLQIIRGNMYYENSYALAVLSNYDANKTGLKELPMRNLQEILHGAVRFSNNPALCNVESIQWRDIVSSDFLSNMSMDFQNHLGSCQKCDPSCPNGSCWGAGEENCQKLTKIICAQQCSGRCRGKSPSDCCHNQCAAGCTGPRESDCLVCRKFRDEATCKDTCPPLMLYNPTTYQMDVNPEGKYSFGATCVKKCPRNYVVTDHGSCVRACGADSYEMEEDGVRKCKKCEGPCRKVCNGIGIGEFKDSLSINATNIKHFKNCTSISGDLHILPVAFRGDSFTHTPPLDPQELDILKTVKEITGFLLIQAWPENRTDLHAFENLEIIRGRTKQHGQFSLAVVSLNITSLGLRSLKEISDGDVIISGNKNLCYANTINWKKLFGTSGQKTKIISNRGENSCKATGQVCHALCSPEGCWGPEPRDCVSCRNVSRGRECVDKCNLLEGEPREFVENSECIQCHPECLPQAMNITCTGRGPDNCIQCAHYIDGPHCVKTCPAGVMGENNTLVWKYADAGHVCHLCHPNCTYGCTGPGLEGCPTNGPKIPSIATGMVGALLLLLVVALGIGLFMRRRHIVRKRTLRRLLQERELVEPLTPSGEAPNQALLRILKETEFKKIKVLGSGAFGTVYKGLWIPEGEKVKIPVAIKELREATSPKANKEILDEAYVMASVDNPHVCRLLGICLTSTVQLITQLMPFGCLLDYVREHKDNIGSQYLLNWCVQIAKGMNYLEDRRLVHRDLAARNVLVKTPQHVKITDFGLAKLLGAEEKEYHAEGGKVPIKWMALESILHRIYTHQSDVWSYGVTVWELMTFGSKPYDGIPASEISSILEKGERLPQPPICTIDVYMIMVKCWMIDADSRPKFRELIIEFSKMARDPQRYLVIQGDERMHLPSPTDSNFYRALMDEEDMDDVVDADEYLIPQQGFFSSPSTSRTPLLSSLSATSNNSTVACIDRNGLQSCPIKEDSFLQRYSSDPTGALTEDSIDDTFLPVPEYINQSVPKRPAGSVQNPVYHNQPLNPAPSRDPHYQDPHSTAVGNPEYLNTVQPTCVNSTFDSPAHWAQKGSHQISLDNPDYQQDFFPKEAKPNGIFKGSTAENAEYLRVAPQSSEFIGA

[9] = Toxicity in female SCID mouse xenografted with human NCI-H2073 cells harboring EGFR D770_N771insSVD mutant assessed as body weight loss at 100 mg/kg, po administered once daily for 14 days; assay type: organism-based; conditions: in vivo, 336 h, time 14 day
[10] = (§1) Selectivity ratio of IC50 for inhibition of wildtype EGFR (unknown origin) transfected in human NCI-H2073 cells preincubated for 2 hrs followed by EGF stimulation for 10 mins by ELISA to IC50 for inhibition of EGFR D770_N771insSVD mutant (unknown origin) transfected in human NCI-H2073 cells incubated for 2 hrs by ELISA; assay type: cell-based
[11] = target: T2, Epidermal growth factor receptor (Homo sapiens, UniProt P00533, D770-N771INSSVD); assay: Inhibition of EGFR D770_N771insSVD mutant (unknown origin) phosphorylation transfected in human NCI-H2073 cells incubated for 2 hrs by HTRF assay; assay type: cell-based
T2 sequence (P00533 whole entry, looked up, stated change not applied): as the sequence (P00533 whole entry) above

[12] = target: T2, Epidermal growth factor receptor; assay: Inhibition of EGFR D770_N771insSVD mutant (unknown origin) phosphorylation transfected in human NCI-H2073 cells incubated for 2 hrs by ELISA; assay type: cell-based
[13] = target: Epidermal growth factor receptor (Homo sapiens, UniProt P00533, D770-N771INSNPG); assay: Inhibition of 6His-tagged TEV-GS fused EGFR D770_N771insNPG mutant (G696 to G1210 reisudes) (unknown origin) expressed in Sf21 cells using Poly(Glu,Tyr) peptide as substrate preincubated for 15 mins followed by substrate addition and measured after 30 mins in presence of ATP by ADP-Glo reagent based assay
Epidermal growth factor receptor (Homo sapiens, UniProt P00533, D770-N771INSNPG), sequence (P00533 whole entry, looked up, stated change not applied, the tested form may be a part): as the sequence (P00533 whole entry) above

[14] = target: T1, Epidermal growth factor receptor; assay: Inhibition of wildtype EGFR (unknown origin) phosphorylation transfected in human NCI-H2073 cells preincubated for 2 hrs followed by EGF stimulation for 10 mins by HTRF assay; assay type: cell-based
[15] = as §1, with “HTRF assay” for “ELISA”; assay type: cell-based
[16] = target: T1, Epidermal growth factor receptor; assay: Inhibition of recombinant wildtype human N-terminal GST-tagged EGFR cytoplasmic domain (669 to 1210 residues) expressed in Sf21 insect cells using Poly(Glu,Tyr) peptide as substrate preincubated for 15 mins followed by substrate addition and measured after 50 mins in presence of ATP by ADP-Glo reagent based assay
[17] = Antitumor activity against human NCI-H2073 cells harboring wildtype EGFR xenografted in female SCID mouse assessed as tumor growth inhibition at 100 mg/kg, po administered once daily for 15 days relative to control; assay type: functional; conditions: NCI-H2073, 360 h, time 15 day, read-out: TGI
[18] = Antitumor activity against human NCI-H2073 cells harboring EGFR D770_N771insSVD mutant xenografted in female SCID mouse assessed as tumor growth inhibition at 100 mg/kg, po administered once daily for 14 days relative to control; assay type: functional; conditions: NCI-H2073, 336 h, time 14 day, read-out: TGI
[19] = system: Mus musculus; assay: In vivo inhibition of EGFR phosphorylation in female SCID mouse xenografted with NCI-H2073 cells harboring EGFR D770_N771insSVD mutant at 100 mg/kg, po measured after 1 to 6 hrs by immunoblotting analysis; assay type: functional, organism-based; conditions: time 1-6 hrs
[20] = Selectivity ratio of Ki/Kinact for inhibition of EGFR D770_N771insNPG mutant (unknown origin) using AQT0099 as substrate to Ki/Kinact for inhibition of wildtype EGFR (unknown origin) using AQT0099 as substrate
[21] = Intrinsic permeability in human Caco-2 cells at 10 uM; assay type: ADME, cell-based; conditions: read-out: permeability
[22] = system: MDR1; assay: Efflux ratio of apparent permeability across basolateral to apical side over apical to basolateral side in MDCKII-MDR1 cells at 1 uM incubated for 2 hrs by LC-MS/MS analysis; assay type: ADME, cell-based, Canis lupus familiaris; conditions: dog, MDCK-MDR1
[23] = Selectivity ratio of IC50 for inhibition of recombinant wildtype human N-terminal GST-tagged EGFR cytoplasmic domain (669 to 1210 residues) expressed in Sf21 insect cells to IC50 for inhibition of 6His-tagged TEV-GS fused EGFR D770_N771insNPG mutant (G696 to G1210 reisudes) (unknown origin) expressed in Sf21 cells

SMILES | logD at 2 h [1] | hepatocyte CLint at 1 µM [2] | microsomal CLint at 1 µM [4] | also measured
C=CC(=O)N1C[C@@H](n2cc(-c3ccncc3)c(-c3cc(COc4ccc5c(c4)CN(C)C5=O)ccc3F)n2)C[C@H]1C | 3.3 | 55 µL/min/1e6 cells | > 300 µL/min/mg | –
C=CC(=O)NCCn1cc(-c2ncnc3cc(OC)c(OC)cc23)c(-c2cccc(OC)c2)n1 | 2.4 | – | 116 µL/min/mg | half-life at 1 µM [6]: 49.3 h
C=CC(=O)N[C@H]1C=C(C)c2c(-c3cnc4ccccc4c3)c3c(N)ncnc3n2C1 [CLN-081] | – | – | – | IC50 [8]: 190 nM; Activity [9]: < 10%; Ratio IC50 [10]: 3.4; IC50 [11]: 21 nM; IC50 [12]: 57 nM; IC50 [13]: < 3 nM; IC50 [14]: 77 nM; Ratio IC50 [15]: 3.6; IC50 [16]: < 3 nM; inhibition in vivo at 100 mg/kg [17]: 63%; inhibition in vivo at 100 mg/kg [18]: 69%; inhibition [19]: Active; Selectivity ratio [20]: 0.79
C=CC(=O)Nc1ccc(OC)c(Nc2nccc(-c3c[nH]nc3-c3cccc(OC)c3)n2)c1 | 4.1 | – | 46 µL/min/mg | half-life at 1 µM [6]: 5.35 h; Papp at 10 µM [21]: 64 ×10⁻⁶ cm/s
Fc1ccccc1COc1cccc(-c2n[nH]cc2-c2ccncn2)c1 | 3.5 | – | 117 µL/min/mg | –
C=CC(=O)N1C[C@@H](n2cc(-c3ccncc3)c(-c3ccc(F)c(COc4ccc5c(c4)CN(C)C5=O)c3)n2)C[C@H]1C | 3.6 | 173 µL/min/1e6 cells | > 300 µL/min/mg | –
C#CC(=O)NCCn1cc(-c2ncnc3cc(OC)c(OC)cc23)c(-c2cccc(OC)c2)n1 | 2.1 | – | 105 µL/min/mg | half-life at 1 µM [6]: 0.917 h
C=CC(=O)Nc1ccc(OC)c(Nc2cc(-c3c[nH]nc3-c3cccc(OCc4ccc5c(c4)CN(C)C5=O)c3)ccn2)c1 | 3.9 | – | > 300 µL/min/mg | Papp at 10 µM [21]: 7.5 ×10⁻⁶ cm/s
C=CC(=O)Nc1cc(Nc2ncc(C(=O)OC(C)C)c(-c3cn(C)c4ccccc34)n2)c(OC)cc1N(C)CCN(C)C [MOBOCERTINIB] | – | – | – | IC50 [8]: 30 nM; Ratio IC50 [10]: 1.4; IC50 [11]: 34 nM; IC50 [12]: 22 nM; IC50 [13]: < 3 nM; Ratio IC50 [23]: > 0.4; IC50 [14]: 37 nM; Ratio IC50 [15]: 1.1; IC50 [16]: 1 nM; Selectivity ratio [20]: 0.63
Fc1ccccc1COc1cccc(-c2n[nH]cc2-c2ccncc2)c1 | > 4.9 | – | 226 µL/min/mg | –
COc1cc2ncnc(-c3c[nH]nc3-c3cccc(OCc4ccc5c(c4)CN(C)C5=O)c3)c2cc1OC | – | – | > 300 µL/min/mg | –
CN1Cc2cc(COc3cccc(-c4n[nH]cc4-c4ccncc4)c3)ccc2C1=O | 3.1 | – | 77 µL/min/mg | IC50 [13]: 150 nM; Ratio IC50 [23]: > 50; IC50 [16]: > 7400 nM
C=CS(=O)(=O)NCCn1cc(-c2ncnc3cc(OC)c(OC)cc23)c(-c2cccc(OC)c2)n1 | 2.2 | – | 192 µL/min/mg | half-life at 1 µM [6]: 1.15 h
C=CC(=O)N1CC(Oc2cc3c(-c4c[nH]nc4-c4cccc(OC)c4)ncnc3cc2OC)C1 | 2 | – | 33 µL/min/mg | –

Further lines, with some results ahead:

logD at 2 h [1] | hepatocyte CLint at 1 µM [2] | microsomal CLint at 1 µM [4] | SMILES | also measured
4.4 | 48 µL/min/1e6 cells | 51 µL/min/mg | C=CC(=O)N1CC(n2cc(-c3ccncc3)c(-c3cccc(/C=C/c4ncc(C5CC5)o4)c3)n2)C1 | hepatocyte CLint at 1 µM [3]: 64 µL/min/1e6 cells
2.6 | – | > 264 µL/min/mg | C=CC(=O)N1CC[C@H](n2cc(-c3ccncc3)c(-c3cccc(OCc4ccc5c(c4)CN(C)C5=O)c3)n2)C1 | hepatocyte CLint at 1 µM [3]: 64 µL/min/1e6 cells
2.4 | – | 135 µL/min/mg | C=CC(=O)N1CC[C@@H](n2cc(-c3ncnc4cc(OC)c(OC)cc34)c(-c3cccc(OC)c3)n2)C1 | –
2.5 | 38 µL/min/1e6 cells | 64 µL/min/mg | C=CC(=O)N1CC[C@H](n2cc(-c3ccncc3)c(-c3cccc(NC(=O)c4cn(C5CC5)cn4)c3)n2)C1 | hepatocyte CLint at 1 µM [3]: 42 µL/min/1e6 cells; Time [5]: 1 h
3 | – | > 300 µL/min/mg | C=CC(=O)N1C[C@@H](n2cc(-c3ccncc3)c(-c3cccc(OCc4ccc5c(c4)CN(C)C5=O)c3)n2)C[C@@H]1C | –
2.9 | – | > 300 µL/min/mg | C=CC(=O)N1CC[C@H](n2cc(-c3ccncc3)c(-c3ccc(F)c(OCc4ccc5c(c4)CN(C)C5=O)c3)n2)C1 | Drug metabolism [7]: Metabolite_Detected
2.4 | – | 157 µL/min/mg | C=CC(=O)N1CC[C@H](n2cc(-c3ncnc4cc(OC)c(OC)cc34)c(-c3cccc(OC)c3)n2)C1 | –
3 | 128 µL/min/1e6 cells | > 300 µL/min/mg | C=CC(=O)N1CC[C@H](n2cc(-c3ccncc3)c(-c3cccc(COc4ccc5c(c4)CN(C)C5=O)c3)n2)C1 | –
3.2 | – | > 300 µL/min/mg | C=CC(=O)N1C[C@@H](n2cc(-c3ccncc3)c(-c3cccc(OCc4ccc5c(c4)CN(C)C5=O)c3)n2)C[C@H]1C | –
3.9 | 28 µL/min/1e6 cells | 200 µL/min/mg | C=CC(=O)N1CC[C@H](n2cc(-c3ccncc3)c(-c3cccc(/C=C/c4ccc5c(c4)CN(C)C5=O)c3)n2)C1 | efflux ratio at 2 h, 1 µM [22]: 29; hepatocyte CLint at 1 µM [3]: 29 µL/min/1e6 cells; IC50 [11]: 220 nM; IC50 [14]: > 16000 nM; Ratio IC50 [15]: > 73; Time [5]: 0 h
3.4 | 58 µL/min/1e6 cells | > 300 µL/min/mg | C=CC(=O)N1C[C@@H](n2cc(-c3ccncc3)c(-c3cccc(COc4ccc5c(c4)CN(C)C5=O)c3)n2)C[C@H]1C | hepatocyte CLint at 1 µM [3]: 30 µL/min/1e6 cells; Time [5]: 3 h
3.3 | – | > 300 µL/min/mg | C=CC(=O)N1CC[C@H](n2cc(-c3ccncc3)c(-c3cc(F)cc(OCc4ccc5c(c4)CN(C)C5=O)c3)n2)C1 | IC50 [11]: 540 nM; IC50 [14]: > 28000 nM; Ratio IC50 [15]: > 52
2.2 | 58 µL/min/1e6 cells | 19 µL/min/mg | C=CC(=O)N1CC(n2cc(-c3ccncc3)c(-c3cccc(NC(=O)c4cn(C5CC5)cn4)c3)n2)C1 | hepatocyte CLint at 1 µM [3]: 150 µL/min/1e6 cells
3.5 | 62 µL/min/1e6 cells | 167 µL/min/mg | C=CC(=O)N1CC[C@H](n2cc(-c3ccncc3)c(-c3cccc(/C=C/c4cc5n(n4)CCOC5)c3)n2)C1 | –
3.7 | 67 µL/min/1e6 cells | 202 µL/min/mg | C=CC(=O)N1CC[C@H](n2cc(-c3ccncn3)c(-c3cccc(/C=C/c4ncc(C5CC5)o4)c3)n2)C1 | –
2.2 | 21 µL/min/1e6 cells | 58 µL/min/mg | C=CC(=O)N1CC[C@H](n2cc(-c3ccncc3)c(-c3cccc(NC(=O)c4ccc5c(c4)CN(C)C5=O)c3)n2)C1 | Papp at 10 µM [21]: < 0.36 ×10⁻⁶ cm/s
2.7 | – | > 300 µL/min/mg | C=CC(=O)N1CC[C@H](n2cc(-c3ccncc3)c(-c3cc(OCc4ccc5c(c4)CN(C)C5=O)ccc3F)n2)C1 | –
3.1 | 187 µL/min/1e6 cells | 166 µL/min/mg | C=CC(=O)N1CC[C@H](n2cc(-c3ccncc3)c(-c3cccc(NC(=O)c4ncc(C5CC5)o4)c3)n2)C1 | Papp at 10 µM [21]: 30 ×10⁻⁶ cm/s
2.9 | 51 µL/min/1e6 cells | 175 µL/min/mg | C=CC(=O)N1CC[C@H](n2cc(-c3ccncc3)c(-c3cccc(NC(=O)c4cccc(OC)c4F)c3)n2)C1 | Papp at 10 µM [21]: 42 ×10⁻⁶ cm/s
